Where two headings read alike, the source gives them in different places.
Key:
Male Sprague-Dawley rats = assay: Effect of Example 2 on sodium and phosphate absorption (urinary excretion after oral NaH2PO4 bolus); format: in vivo, rat; details: 4 h urine; for ED50: Rattus norvegicus, oral, NaH2PO4 bolus 690 mg/kg; for Ratio of Urinary-to-Dietary Phosphorus / Ratio of Urinary-to-Dietary Sodium: mean ± SEM
Protocol: Effect of Example 2 on Sodium and Phosphate Absorption Urinary sodium and phosphate excretion following an oral bolus dose of sodium phosphate is an indirect measure of sodium and phosphate absorption in the intestine. Male Sprague-Dawley rats at an age of about 7 weeks with body weights ranging from 195 to 221 g are randomized into groups based on equal mean body weights. Example 2 at 0.3 mg/mL (final dose 3 mg/kg dosed in 10 mL/kg volume) is formulated by adding 1% HEC to a glass vial containing a pre-weighed amount of compound, and then probe sonicating until it appears as a uniform suspension. […] The subsequent dosing solutions of Example 2 are prepared by serial dilutions with 1% HEC. NaH2PO4 at 34.5 mg/ml (final dose 690 mg/kg dosed in 20 ml/kg volume) is formulated by adding sterile water. On the day of the study, the animals are placed into clean cages without food but with access to water for a 4 h fast before the study. Rats are orally dosed with vehicle or varying doses of Example 2. 15 min later, animals are dosed with sterile water or NaH2PO4, then immediately transferred to metabolic cages. Urine samples are collected for 4 h. Net urine volume is recorded. Urinary sodium, creatinine, and phosphate are assessed using a clinical biochemistry analyzer. Values expressed as the ratio of urinary-to-dietary phosphorus or sodium are calculated and presented as mean±SEM. Curves are fitted with a 4-parameter logistic curve fitting tool GraphPod Prism 6 to calculate the ED50. For the purpose of curve fitting, the dose of Example 2 is artificially set to 0.00001 mg/kg in the software for the vehicle-alone group.

male Sprague Dawley rats = assay: Phosphate absorption 15 min after radiolabeled phosphate (Example 2, Compound A, combination); format: in vivo, rat; details: Example 2 0.4 mg/kg, plasma 15 min after radiolabeled phosphate, P=0.046 versus vehicle control
Protocol: Effect of Example 2 in Combination with an NPT2b Inhibitor (Compound A) on Phosphate Absorption and Intestinal Phosphate Retention in Rats
The purpose of this study is to investigate in rats the effect of Example 2, Compound A, and an Example 2/Compound A combination on phosphate absorption 15 min after dosing the compounds and the phosphate retained in the intestine 4.25 h after dosing the compounds. The latter is a measure of the oral phosphate load which is absorbed over an extended period.
Two vehicles are used in this study: 1) 1% HEC and 2) 0.46% poly-1-vinylpyrrolidone-co-vinyl acetate in water (PVP-VA vehicle). The vehicle control group in this study receives a 1:1 combination of the two vehicles.
The Example 2, Compound A and phosphate dosing solutions are prepared similarly as described above, except the doses are 0.4 mg/kg for Example 2 and 10 mg/kg for Compound A and they are prepared at a concentration where they would be dosed in a 5 mL/kg volume. […]
Male Sprague Dawley rats are fasted 4 h and then administered appropriate vehicles, 10 mg/kg Compound A, 0.4 mg/kg Example 2, or a combination of both compounds. […] Radioactivity in plasma is measured by scintillation counting and used to calculate the inhibition of phosphate absorption. […] Statistical significance is determined by ANOVA with a Dunnett's comparison to the Example 2/Compound A combination using JMP 12.1.

In the case of `CN1Cc2c(Cl)cc(Cl)cc2[C@H](c2cccc(S(=O)(=O)NCCOCCOCCN/C(=N\C(N)=O)NCCCCN/C(=N/C(N)=O)NCCOCCOCCNS(=O)(=O)c3cccc([C@@H]4CN(C)Cc5c(Cl)cc(Cl)cc54)c3)c2)C1.Cl.Cl` [Example 2, [[4-[[N′-Carbamoyl-N-[2-[2-[2-[[3-[(4S)-6,8-dichloro-2-methyl-3,4-dihydro-1H-isoquinolin-4-yl]phenyl]sulfonylamino]ethoxy]ethoxy]ethyl]carbamimidoyl]amino]butylamino]-[2-[2-[2-[[3-[(4S)-6,8-dichloro-2-methyl-3,4-dihydro-1H-isoquinolin-4-yl]phenyl]sulfonylamino]ethoxy]ethoxy]ethylamino]methylene]urea dihydrochloride], the ED50 (Male Sprague-Dawley rats; read-out: ED50 on sodium excretion) is reported as 0.058 mg/kg, the ED50 (Male Sprague-Dawley rats; read-out: ED50 on urinary phosphorus excretion) is reported as 0.041 mg/kg and the “Ratio of Urinary-to-Dietary Phosphorus” value (Male Sprague-Dawley rats; oral 0.001 mg/kg) is reported as 0.337 ± 0.017. For the same molecule, the “Ratio of Urinary-to-Dietary Sodium” value (Male Sprague-Dawley rats; oral 0.001 mg/kg) was 0.326 ± 0.042, the “Ratio of Urinary-to-Dietary Phosphorus” value (Male Sprague-Dawley rats; oral 0.003 mg/kg) was 0.350 ± 0.023 and the “Ratio of Urinary-to-Dietary Sodium” value (Male Sprague-Dawley rats; oral 0.003 mg/kg) was 0.413 ± 0.055. For the same molecule, the “Ratio of Urinary-to-Dietary Phosphorus” value (Male Sprague-Dawley rats; oral 0.01 mg/kg) was 0.320 ± 0.042, the “Ratio of Urinary-to-Dietary Sodium” value (Male Sprague-Dawley rats; oral 0.01 mg/kg) was 0.290 ± 0.06 and the “Ratio of Urinary-to-Dietary Phosphorus” value (Male Sprague-Dawley rats; oral 0.03 mg/kg) was 0.268 ± 0.04. The “Ratio of Urinary-to-Dietary Sodium” value (Male Sprague-Dawley rats; oral 0.03 mg/kg) was 0.276 ± 0.06, the “Ratio of Urinary-to-Dietary Phosphorus” value (Male Sprague-Dawley rats; oral 0.1 mg/kg) was 0.197 ± 0.045 and the “Ratio of Urinary-to-Dietary Sodium” value (Male Sprague-Dawley rats; oral 0.1 mg/kg) was 0.105 ± 0.042. For the same molecule, the “Ratio of Urinary-to-Dietary Phosphorus” value (Male Sprague-Dawley rats; oral 0.3 mg/kg) was 0.168 ± 0.027, the “Ratio of Urinary-to-Dietary Sodium” value (Male Sprague-Dawley rats; oral 0.3 mg/kg) was 0.039 ± 0.010 and the “Ratio of Urinary-to-Dietary Phosphorus” value (Male Sprague-Dawley rats; oral 1 mg/kg) was 0.191 ± 0.039. The “Ratio of Urinary-to-Dietary Sodium” value (Male Sprague-Dawley rats; oral 1 mg/kg) was 0.051 ± 0.027, the “Ratio of Urinary-to-Dietary Phosphorus” value (Male Sprague-Dawley rats; oral 3 mg/kg) was 0.144 ± 0.009 and the “Ratio of Urinary-to-Dietary Sodium” value (Male Sprague-Dawley rats; oral 3 mg/kg) was 0.022 ± 0.009. For the same molecule, the “Inhibition of phosphate absorption” value (male Sprague Dawley rats) was 29%.

— patent publication US12428377B2, “Sodium-hydrogen exchanger 3 inhibitor compounds” (Eli Lilly and Company, priority 2019, dated 2025)
